# Data published in US8758816B2, “Compositions comprising azelastine and methods of use thereof” (priority 2004, dated 2014).
# Tested on: patients with seasonal allergic rhinitis (SAR)
# Experiment: MP 428 two-week randomized double-blind study: Total Nasal Symptom Score (TNSS), change from baseline
# Assay type: in vivo, human
# Parameters: key to Change from Baseline in AM TNSS, Mean / Change from Baseline in AM TNSS, LS Mean / Change from Baseline in AM TNSS, Median: TNSS sum of 4 symptoms each 0-3 (0=none, 3=severe); change from baseline
# Procedure: A two-week, randomized, double-blind study, which evaluated the effects of the co-administration of ASTELIN® (azelastine hydrochloride (HCl)) and FLONASE® (fluticasone propionate) compared to either product alone in patients with seasonal allergic rhinitis (SAR) was conducted during the 2006 Texas mountain cedar season. After a 5-day placebo lead-in period, 151 patients with moderate-to-severe allergic rhinitis symptoms were randomized to either: (1) (49 total patients) ASTELIN® (azelastine hydrochloride (HCl)) plus placebo saline nasal spray 2 sprays per nostril, 15 minutes apart, twice daily (AM & PM); (2) (50 total patients) FLONASE® (fluticasone propionate) plus placebo saline nasal spray, 2 sprays per nostril, 15 minutes apart, once daily (AM) and two sessions of placebo saline nasal spray, 2 sprays per nostril, 15 minutes apart (PM); or (3) (52 total patients) the co-administration of ASTELIN® (azelastine hydrochloride (HCl)) 2 sprays per nostril plus FLONASE® (fluticasone propionate) 2 sprays per nostril (AM), 15 minutes apart, and ASTELIN® (azelastine hydrochloride (HCl)) 2 sprays per nostril plus placebo saline nasal spray, 15 minutes apart, (PM) for a 2-week double-blind treatment period.
# The primary efficacy variable was the change from baseline in the Total Nasal Symptom Score (TNSS), which comprised sneezing, itchy nose, runny nose, and nasal congestion (individual symptoms scores were assigned a value between 0 and 3, where 0=no symptoms and 3=severe symptoms). This study was not statistically designed to assess the differences between ASTELIN® and FLONASE®.
# [1] = Day 9, Intent-to-Treat Population
# [2] = Day 10, Intent-to-Treat Population
# [3] = Day 10, Per-Protocol Population
# [4] = Day 11, Intent-to-Treat Population
# [5] = Day 11, Per-Protocol Population
# [6] = Day 12, Intent-to-Treat Population
smiles,measurement,setting,value
"CCC(=O)O[C@]1(C(=O)SCF)[C@H](C)C[C@H]2[C@@H]3C[C@H](F)C4=CC(=O)C=C[C@]4(C)[C@@]3(F)[C@@H](O)C[C@@]21C [Fluticasone, fluticasone propionate]","Change from Baseline in AM TNSS, Median",[1],−1.83
same,"Change from Baseline in AM and PM Combined TNSS, Mean",[1],−5.08
same,"Change from Baseline in AM and PM Combined TNSS, Median",[1],−4.58
same,"Change from Baseline in PM TNSS, LS Mean",[1],−2.73
same,"Change from Baseline in PM TNSS, Mean",[1],−2.69
same,"Change from Baseline in PM TNSS, Median",[1],−2.00
same,"Percent Change from Baseline in AM TNSS, LS Mean",[1],−24.94%
same,"Percent Change from Baseline in AM TNSS, Mean",[1],−24.52%
same,"Percent Change from Baseline in AM TNSS, Median",[1],−21.95%
same,"Percent Change from Baseline in AM and PM Combined TNSS, LS Mean",[1],−26.50%
same,"Percent Change from Baseline in AM and PM Combined TNSS, Mean",[1],−25.94%
same,"Percent Change from Baseline in AM and PM Combined TNSS, Median",[1],−23.40%
same,"Percent Change from Baseline in PM TNSS, LS Mean",[1],−27.82%
same,"Percent Change from Baseline in PM TNSS, Mean",[1],−27.18%
same,"Percent Change from Baseline in PM TNSS, Median",[1],−22.22%
same,"Change from Baseline in AM and PM Combined TNSS, LS Mean","Day 9, Intent-to-Treat Population, ANCOVA model",−5.17
same,"Change from Baseline in AM and PM Combined TNSS, LS Mean","Day 9, Per-Protocol Population",−5.21
same,"Change from Baseline in AM and PM Combined TNSS, Mean","Day 9, Per-Protocol Population",−5.18
same,"Change from Baseline in AM and PM Combined TNSS, Median","Day 9, Per-Protocol Population",−4.58
same,"Percent Change from Baseline in AM and PM Combined TNSS, LS Mean","Day 9, Per-Protocol Population",−26.65%
same,"Percent Change from Baseline in AM and PM Combined TNSS, Mean","Day 9, Per-Protocol Population",−26.33%
same,"Percent Change from Baseline in AM and PM Combined TNSS, Median","Day 9, Per-Protocol Population",−23.40%
same,"Change from Baseline in AM TNSS, LS Mean",[2],−2.74
same,"Change from Baseline in AM TNSS, Mean",[2],−2.73
same,"Change from Baseline in AM TNSS, Median",[2],−2.80
same,"Change from Baseline in AM and PM Combined TNSS, Mean",[2],−5.61
same,"Change from Baseline in AM and PM Combined TNSS, Median",[2],−4.83
same,"Change from Baseline in PM TNSS, LS Mean",[2],−2.90
same,"Change from Baseline in PM TNSS, Mean",[2],−2.88
same,"Change from Baseline in PM TNSS, Median",[2],−2.60
same,"Percent Change from Baseline in AM TNSS, LS Mean",[2],−28.09%
same,"Percent Change from Baseline in AM TNSS, Mean",[2],−28.06%
same,"Percent Change from Baseline in AM TNSS, Median",[2],−28.36%
same,"Percent Change from Baseline in AM and PM Combined TNSS, LS Mean",[2],−28.93%
same,"Percent Change from Baseline in AM and PM Combined TNSS, Mean",[2],−28.76%
same,"Percent Change from Baseline in AM and PM Combined TNSS, Median",[2],−27.10%
same,"Percent Change from Baseline in PM TNSS, LS Mean",[2],−29.73%
same,"Percent Change from Baseline in PM TNSS, Mean",[2],−29.48%
same,"Percent Change from Baseline in PM TNSS, Median",[2],−27.27%
same,"Change from Baseline in AM and PM Combined TNSS, LS Mean","Day 10, Intent-to-Treat Population, ANCOVA model",−5.64
same,"Change from Baseline in AM and PM Combined TNSS, LS Mean",[3],−5.70
same,"Change from Baseline in AM and PM Combined TNSS, Mean",[3],−5.74
same,"Change from Baseline in AM and PM Combined TNSS, Median",[3],−4.83
same,"Percent Change from Baseline in AM and PM Combined TNSS, LS Mean",[3],−29.19%
same,"Percent Change from Baseline in AM and PM Combined TNSS, Mean",[3],−29.26%
same,"Percent Change from Baseline in AM and PM Combined TNSS, Median",[3],−27.10%
same,"Change from Baseline in AM TNSS, LS Mean",[4],−2.52
same,"Change from Baseline in AM TNSS, Mean",[4],−2.49
same,"Change from Baseline in AM TNSS, Median",[4],−2.00
same,"Change from Baseline in AM and PM Combined TNSS, Mean",[4],−5.77
same,"Change from Baseline in AM and PM Combined TNSS, Median",[4],−4.83
same,"Change from Baseline in PM TNSS, LS Mean",[4],−3.33
same,"Change from Baseline in PM TNSS, Mean",[4],−3.29
same,"Change from Baseline in PM TNSS, Median",[4],−3.00
same,"Percent Change from Baseline in AM TNSS, LS Mean",[4],−25.25%
same,"Percent Change from Baseline in AM TNSS, Mean",[4],−25.02%
same,"Percent Change from Baseline in AM TNSS, Median",[4],−18.37%
same,"Percent Change from Baseline in AM and PM Combined TNSS, LS Mean",[4],−29.71%
same,"Percent Change from Baseline in AM and PM Combined TNSS, Mean",[4],−29.30%
same,"Percent Change from Baseline in AM and PM Combined TNSS, Median",[4],−27.71%
same,"Percent Change from Baseline in PM TNSS, LS Mean",[4],−34.15%
same,"Percent Change from Baseline in PM TNSS, Mean",[4],−33.54%
same,"Percent Change from Baseline in PM TNSS, Median",[4],−33.33%
same,"Change from Baseline in AM and PM Combined TNSS, LS Mean","Day 11, Intent-to-Treat Population, ANCOVA model",−5.85
same,"Change from Baseline in AM and PM Combined TNSS, LS Mean",[5],−5.89
same,"Change from Baseline in AM and PM Combined TNSS, Mean",[5],−5.89
same,"Change from Baseline in AM and PM Combined TNSS, Median",[5],−4.83
same,"Percent Change from Baseline in AM and PM Combined TNSS, LS Mean",[5],−29.83%
same,"Percent Change from Baseline in AM and PM Combined TNSS, Mean",[5],−29.69%
same,"Percent Change from Baseline in AM and PM Combined TNSS, Median",[5],−27.71%
same,"Change from Baseline in AM TNSS, LS Mean",[6],−2.99
same,"Change from Baseline in AM TNSS, Mean",[6],−2.98
same,"Change from Baseline in AM TNSS, Median",[6],−2.75
same,"Change from Baseline in AM and PM Combined TNSS, Mean",[6],−6.08
same,"Change from Baseline in AM and PM Combined TNSS, Median",[6],−5.17
same,"Change from Baseline in PM TNSS, LS Mean",[6],−3.13
same,"Change from Baseline in PM TNSS, Mean",[6],−3.10
same,"Change from Baseline in PM TNSS, Median",[6],−3.00
same,"Percent Change from Baseline in AM TNSS, LS Mean",[6],−30.64%
same,"Percent Change from Baseline in AM TNSS, Mean",[6],−30.49%
same,"Percent Change from Baseline in AM TNSS, Median",[6],−26.83%
same,"Percent Change from Baseline in AM and PM Combined TNSS, LS Mean",[6],−31.31%
same,"Percent Change from Baseline in AM and PM Combined TNSS, Mean",[6],−31.04%
same,"Percent Change from Baseline in AM and PM Combined TNSS, Median",[6],−27.78%
same,"Percent Change from Baseline in PM TNSS, LS Mean",[6],−32.00%
same,"Percent Change from Baseline in PM TNSS, Mean",[6],−31.52%
